Assay: mn = molality of the nth substance listed, in mol/kg
Settings: 101.3 kPa, Liquid; for viscosity: Capillary tube (Ostwald / Ubbelohde) method; for mass density: Vibrating tube method

OC[C@@H](O)[C@@H](O)[C@H](O)[C@@H](O)CO [D-sorbitol] + O
Settings	mass density, m1 = 0.2 [kg/m3]	mass density, m1 = 0.4 [kg/m3]	mass density, m1 = 0.6 [kg/m3]	mass density, m1 = 0.8 [kg/m3]	mass density, m1 = 1 [kg/m3]	viscosity, m1 = 0.2 [mPa·s]	viscosity, m1 = 0.4 [mPa·s]	viscosity, m1 = 0.6 [mPa·s]	viscosity, m1 = 0.8 [mPa·s]	viscosity, m1 = 1 [mPa·s]
293.15 K	1010.61	1022.43	1033.64	1044.32	1054.54	1.099	1.203	1.319	1.453	1.592
303.15 K	1007.87	1019.5	1030.53	1041.07	1051.08	0.87	0.944	1.034	1.122	1.233
313.15 K	1004.3	1015.77	1026.67	1037.06	1046.99	0.708	0.766	0.829	0.903	0.977
323.15 K	999.96	1011.33	1022.12	1032.4	1042.26	0.588	0.634	0.686	0.738	0.797
